Assay results: ChEMBL document CHEMBL5113497, “Comparison of ATP-binding pockets and discovery of homologous recombination inhibitors” (Bioorg Med Chem, 2022)
Active and inactive are the calls of the source. The calls are words filed in the database; no cut-off is given here.

Key:
Homo sapiens = species: Homo sapiens; assay: Inhibition of recombinant human RAD51/p53 (unknown origin) interaction at 200 uM measured by ELISA assay
[1] = biological target: T1, DNA repair protein RAD51 homolog 1 (Homo sapiens) (UniProt Q06609); assay: Inhibition of RAD51 in human U2OS cells at 20 to 80 uM measured by direct repeats green fluorescent protein (DR-GFP) reporter assay; format: cell-based; conditions: dose 20-80 µM
T1 sequence (whole entry): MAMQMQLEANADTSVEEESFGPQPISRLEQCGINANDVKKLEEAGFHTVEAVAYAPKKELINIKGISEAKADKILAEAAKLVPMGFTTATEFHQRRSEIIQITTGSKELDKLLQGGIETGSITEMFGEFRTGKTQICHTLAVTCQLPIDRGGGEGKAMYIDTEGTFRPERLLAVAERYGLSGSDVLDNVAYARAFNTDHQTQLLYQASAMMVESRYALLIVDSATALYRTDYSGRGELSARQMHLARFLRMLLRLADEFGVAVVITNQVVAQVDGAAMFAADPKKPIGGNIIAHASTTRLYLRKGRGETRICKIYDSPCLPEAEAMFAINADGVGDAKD

## Nc1ncnc2c1ncn2[C@@H]1O[C@H](COP(=O)(O)OP(=O)(O)NP(=O)(O)O)[C@@H](O)[C@H]1O
Homo sapiens
  inhibition: Active

## Cc1ccc(-n2nnnc2SCC(=O)Nc2oc(C)c3c(C)n[nH]c(=O)c23)c(C)c1
[1]
  inhibition: Active
Homo sapiens
  inhibition: Active

## Nc1ncnc2c1ncn2[C@@H]1O[C@H](COP(=O)(O)OP(=O)(O)OP(=O)(O)O)[C@@H](O)[C@H]1O
Homo sapiens
  inhibition: Active

## Cc1c(F)cc(C(N)=O)cc1NC(=O)c1cccc(S(=O)(=O)Nc2ccccc2F)c1
Homo sapiens
  inhibition: Active

## C[C@@H]1Cc2ccccc2N1C(=O)COc1ccc(N(C)S(=O)(=O)c2ccccc2)cc1
[1]
  inhibition: Active
Homo sapiens
  inhibition: Active

## Cc1cc(C)c(CNC(=O)c2cccc(S(=O)(=O)N3C[C@H](C)C[C@@H](C)C3)c2)c(=O)[nH]1
Homo sapiens
  inhibition: Active
